For test [1], the target named is T1, 5-hydroxytryptamine receptor 2A (Rattus norvegicus, UniProt P14842). The experiment in a line: Binding affinity against 5-hydroxytryptamine 2A receptor by displacement of [3H]ketanserin from rat prefrontal cerebral cortex mambranes. It is filed as tissue-based, Frontal cortex. (In general: Displacement assays read how much labelled ligand stays bound in the presence of the test substance.)

The target of test [2] is T2, Sodium-dependent serotonin transporter (Rattus norvegicus, UniProt P31652). Put plainly: Binding affinity against serotonin transporter (SERT) by displacement of [3H]paroxetine in male wistar rats.
T2 sequence (P31652 whole entry): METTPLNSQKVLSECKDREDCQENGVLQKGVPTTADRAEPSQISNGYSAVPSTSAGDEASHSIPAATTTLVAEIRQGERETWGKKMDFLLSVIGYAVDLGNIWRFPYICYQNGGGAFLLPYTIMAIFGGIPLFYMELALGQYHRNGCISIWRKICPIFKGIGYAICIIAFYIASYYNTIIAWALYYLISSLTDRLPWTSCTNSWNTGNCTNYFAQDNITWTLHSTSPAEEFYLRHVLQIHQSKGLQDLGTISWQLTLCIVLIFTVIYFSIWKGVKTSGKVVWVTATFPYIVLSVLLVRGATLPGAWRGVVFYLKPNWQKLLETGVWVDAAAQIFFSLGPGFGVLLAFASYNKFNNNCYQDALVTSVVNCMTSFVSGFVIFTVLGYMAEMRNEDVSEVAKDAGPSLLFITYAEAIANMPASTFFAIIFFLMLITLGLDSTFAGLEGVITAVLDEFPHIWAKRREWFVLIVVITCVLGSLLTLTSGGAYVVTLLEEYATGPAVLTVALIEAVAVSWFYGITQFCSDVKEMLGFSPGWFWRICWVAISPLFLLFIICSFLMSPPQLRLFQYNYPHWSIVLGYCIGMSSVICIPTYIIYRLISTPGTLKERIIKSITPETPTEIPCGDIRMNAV
For test [3], the target named is T3, 5-hydroxytryptamine receptor 1A (Rattus norvegicus, UniProt P19327).
T3 sequence (P19327 whole entry): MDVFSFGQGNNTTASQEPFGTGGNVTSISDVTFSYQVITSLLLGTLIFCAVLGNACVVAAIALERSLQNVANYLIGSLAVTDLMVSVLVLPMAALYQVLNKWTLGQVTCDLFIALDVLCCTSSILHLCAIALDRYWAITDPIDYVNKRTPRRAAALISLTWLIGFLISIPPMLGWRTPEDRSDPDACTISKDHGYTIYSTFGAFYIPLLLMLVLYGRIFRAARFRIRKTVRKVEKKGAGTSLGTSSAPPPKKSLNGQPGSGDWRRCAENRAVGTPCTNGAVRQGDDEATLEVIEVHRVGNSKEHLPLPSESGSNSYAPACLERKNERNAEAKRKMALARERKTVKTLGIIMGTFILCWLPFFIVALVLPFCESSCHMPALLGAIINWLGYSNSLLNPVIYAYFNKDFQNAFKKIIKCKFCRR
The experiment in a line: Binding affinity against 5-hydroxytryptamine 1A receptor (5-HT1A) by displacement of [3H]8-OH-DPAT from rat hippocampus membranes. The format is cell membranes, Membrane.

Test [4] addresses T1, 5-hydroxytryptamine receptor 2A. The experiment in a line: Binding affinity against 5-hydroxytryptamine 2A receptor by displacement of [3H]-ketanserin from rat prefrontal cerebral cortex mambranes. The format is tissue-based, Frontal cortex.
In test [5] the target is Sodium-dependent dopamine transporter (Rattus norvegicus, UniProt P23977). The experiment in a line: Binding affinity against dopamine transporter (DAT) by displacement of [3H]WIN-35428 in male wistar rats.
Sodium-dependent dopamine transporter, sequence (P23977 whole entry): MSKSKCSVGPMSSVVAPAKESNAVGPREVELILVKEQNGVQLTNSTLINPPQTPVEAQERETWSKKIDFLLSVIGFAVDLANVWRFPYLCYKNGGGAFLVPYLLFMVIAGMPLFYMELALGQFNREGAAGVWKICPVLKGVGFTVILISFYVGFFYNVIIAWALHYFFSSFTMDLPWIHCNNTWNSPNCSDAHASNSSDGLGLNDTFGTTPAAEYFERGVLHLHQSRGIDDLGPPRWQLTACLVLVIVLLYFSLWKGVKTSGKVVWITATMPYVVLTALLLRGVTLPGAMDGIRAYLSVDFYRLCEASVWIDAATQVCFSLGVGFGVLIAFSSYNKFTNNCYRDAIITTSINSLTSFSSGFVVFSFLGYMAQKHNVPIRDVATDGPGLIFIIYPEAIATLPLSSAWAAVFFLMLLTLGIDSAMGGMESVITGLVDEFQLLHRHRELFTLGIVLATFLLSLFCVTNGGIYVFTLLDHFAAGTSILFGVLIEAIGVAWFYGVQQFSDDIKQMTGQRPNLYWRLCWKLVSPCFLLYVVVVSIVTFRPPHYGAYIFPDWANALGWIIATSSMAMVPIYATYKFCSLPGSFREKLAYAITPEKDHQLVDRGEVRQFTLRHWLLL
Test [6] addresses T2, Sodium-dependent serotonin transporter. The experiment in a line: Binding affinity to the serotonin transporter (SERT) measured by displacement of [3H]paroxetine in male wistar rats.

T1 sequence (P14842 whole entry): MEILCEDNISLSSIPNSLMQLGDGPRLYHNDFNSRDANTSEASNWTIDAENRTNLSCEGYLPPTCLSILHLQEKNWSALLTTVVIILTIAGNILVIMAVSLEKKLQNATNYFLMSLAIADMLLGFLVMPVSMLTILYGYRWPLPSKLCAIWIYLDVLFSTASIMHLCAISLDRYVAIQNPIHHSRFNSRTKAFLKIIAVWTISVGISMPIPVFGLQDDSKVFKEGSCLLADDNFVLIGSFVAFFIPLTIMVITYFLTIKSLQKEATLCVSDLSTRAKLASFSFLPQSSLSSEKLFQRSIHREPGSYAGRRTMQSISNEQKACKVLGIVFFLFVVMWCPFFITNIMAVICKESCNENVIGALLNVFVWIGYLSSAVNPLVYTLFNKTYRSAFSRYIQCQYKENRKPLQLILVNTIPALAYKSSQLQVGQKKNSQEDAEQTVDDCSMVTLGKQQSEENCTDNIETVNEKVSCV

As a reminder, the Ki is the dissociation constant of the complex between target and ligand, obtained from inhibition or displacement. Low readings indicate higher affinity, high ones lower affinity. As usually defined, the IC50 is the concentration that inhibits the measured activity by half. In test [1], `Nc1ccc(OC(CCC(=O)C2CCN(c3ccc(F)cc3)CC2)c2ccc(F)cc2)cc1` (configuration not stated) came in with an inhibitory constant (Ki) of 14.4 nM. Besides, the concentration for half-maximal inhibition (IC50) in test [2] and in test [3] was greater than 1000 nM throughout.
On to `Fc1cc(F)cc(OC(c2ccccc2)C2CCNCC2)c1` (stereo in doubt; (+)-15aj), for which the IC50 in test [4] was greater than 1000 nM; in test [5] it was greater than 500 nM; in test [3] it was greater than 1000 nM. In addition, in test [6], the Ki came to 7.1 nM.
As for `Cc1ccc(OC(CCN2CCc3ccccc3C2)c2ccccc2)cc1` (configuration not stated), the IC50 in test [4], in test [2] and in test [3] was greater than 1000 nM each time.
`O=C(CCC(Oc1ccc([N+](=O)[O-])cc1)c1ccccc1)C1CCN(c2ccc(F)cc2)CC1` (configuration not stated): the Ki in test [1] worked out at 23 nM. In addition, the IC50 in test [2] and in test [3] was greater than 1000 nM in each case.
In the case of `Clc1cccc(OC(c2ccccc2)C2CCNCC2)c1` (stereo in doubt; (+)-15l), the IC50 in test [4], in test [5] and in test [3] was greater than 1000 nM throughout.
For `Oc1cc2c(cc1O)CN(CCC(Oc1ccccc1C(F)(F)F)c1ccccc1)CC2` (configuration not stated), the IC50 in test [4], in test [2] and in test [3] was greater than 1000 nM throughout.
`N#Cc1cccc(OC(c2ccccc2)C2CCNCC2)c1` (single isomer, unassigned; (-)): the IC50 in test [4] and in test [3] was greater than 1000 nM each time. Further, the Ki in test [5] came to 110 nM; in test [6], 1.4 nM.
`FC(F)(F)c1cccc(OC(CCN2CCN(c3nsc4ccccc34)CC2)c2ccccc2)c1` (configuration not stated) returned a Ki in test [1] of 28.2 nM. Besides, the IC50 in test [2] and in test [3] was greater than 1000 nM throughout.
Take `Fc1ccc(OC(c2ccccc2)C2CCNCC2)cc1` (stereo in doubt; (+)-15p): the IC50 in test [4] and in test [3] was greater than 1000 nM each time. In addition, the Ki in test [5] came out at 821 nM; in test [6], 0.4 nM.
With `Cc1ccc(OC(CCN2CCc3cc(O)c(O)cc3C2)c2ccccc2)cc1` (configuration not stated), the IC50 in test [4], in test [2] and in test [3] was greater than 1000 nM each time.
In the case of `Fc1ccccc1OC(CCN1CCc2ccccc2C1)c1ccccc1` (configuration not stated), the IC50 in test [4], in test [2] and in test [3] was greater than 1000 nM throughout.
As to `Fc1cccc(OC(c2ccccc2)C2CCCC2)c1` (configuration not stated), the IC50 in test [4], in test [2] and in test [3] was greater than 1000 nM in each case.
As to `Fc1ccc(OC(CC2CCNCC2)c2ccc(F)cc2)cc1` (configuration not stated), the Ki in test [1] came to 194 nM; in test [6], 67.7 nM. In test [3], this molecule yielded an IC50 greater than 1000 nM.
As to `Fc1cccc(OC(c2ccccc2)C2CCOCC2)c1` (configuration not stated), the IC50 in test [4], in test [2] and in test [3] was greater than 1000 nM in each case.
As for `Clc1cccc(OC(c2ccccc2)C2CCNCC2)c1` (stereo in doubt; (-)-15l), the IC50 in test [4] was greater than 1000 nM; in test [5], greater than 500 nM; in test [3] it was greater than 1000 nM.
For `Fc1ccc(OC(c2cccc(F)c2)C2CCNCC2)cc1` (configuration not stated), the Ki in test [1] is 360 nM; in test [6], 5.8 nM. In test [3], this molecule returned a half-maximal inhibitory concentration (IC50) greater than 1000 nM.
In the case of `Clc1ccc(OC(CCN2CCc3ccccc3C2)c2ccccc2)cc1` (configuration not stated), the IC50 in test [4], in test [2] and in test [3] was greater than 1000 nM each time.
Turning to `c1ccc(-c2ccc(OC(c3ccccc3)C3CCNCC3)cc2)cc1` (configuration not stated), the IC50 in test [4], in test [2] and in test [3] was greater than 1000 nM throughout.
As to `FC(F)(F)c1ccccc1OC(CCN1CCc2ccccc2C1)c1ccccc1` (configuration not stated), the IC50 in test [4], in test [2] and in test [3] was greater than 1000 nM in each case.
Take `COc1cc2c(cc1OC)CN(CCC(Oc1ccc(Cl)cc1)c1ccccc1)CC2` (configuration not stated): the IC50 in test [4], in test [2] and in test [3] was greater than 1000 nM in each case.
As to `N#Cc1cccc(OC(c2ccccc2)C2CCNCC2)c1` (single isomer, unassigned; (+)), the IC50 in test [4], in test [5] and in test [3] was greater than 1000 nM in each case. Further, the affinity in test [6] corresponds to a Ki of 1.4 nM.
For `Oc1cc2c(cc1O)CN(CCC(Oc1ccc(Cl)cc1)c1ccccc1)CC2` (configuration not stated), the IC50 in test [4], in test [2] and in test [3] was greater than 1000 nM throughout.
For the molecule `Fc1cccc(OC(c2cccc(F)c2)C2CCNCC2)c1` (single isomer, unassigned; (+)), the IC50 in test [4] is greater than 1000 nM; in test [5], greater than 500 nM; in test [3], greater than 1000 nM. In test [6], this molecule showed a Ki of 2.8 nM.
Take `COc1ccc(OC(c2ccc(F)cc2)C2CCN(C(C)=O)CC2)cc1` (configuration not stated): the IC50 in test [4], in test [2] and in test [3] was greater than 1000 nM throughout.
As for `Fc1ccc(OC(c2ccc(Cl)cc2)C2CCNCC2)cc1` (configuration not stated), the IC50 in test [4] and in test [3] was greater than 1000 nM throughout. Besides, in test [6], the affinity corresponds to a Ki of 7.5 nM.
`Fc1cccc(C(Oc2ccccc2F)C2CCNCC2)c1` (stereo in doubt; 15t): the IC50 in test [4] and in test [3] was greater than 1000 nM in each case. In addition, in test [6], the affinity corresponds to a Ki of 9.3 nM.
As for `Fc1cc(F)cc(OC(c2ccccc2)C2CCNCC2)c1` (stereo in doubt; 15aj), the IC50 in test [4] and in test [3] was greater than 1000 nM each time. In test [6], this molecule showed a Ki of 3.4 nM.
Turning to `Fc1ccc(C(Oc2ccc(Cl)cc2)C2CCCNC2)cc1` (configuration not stated), the IC50 in test [4] and in test [3] was greater than 1000 nM in each case. This molecule had an inhibitory constant (Ki) in test [6] of 13.9 nM.
`COc1ccc(OC(CC2CCNCC2)c2ccccc2)cc1` (configuration not stated): the IC50 in test [4] and in test [3] was greater than 1000 nM in each case. Also, in test [6], the affinity, expressed as Ki, was 47 nM.
In the case of `CC(=O)N1CCC(C(Oc2ccccc2)c2ccc(F)cc2)CC1` (configuration not stated), the IC50 in test [4], in test [2] and in test [3] was greater than 1000 nM each time.
For the molecule `N#Cc1ccccc1OC(c1ccccc1)C1CCNCC1` (configuration not stated), the IC50 in test [4] and in test [3] was greater than 1000 nM throughout. This molecule displayed a Ki in test [6] of 105 nM.
For `Cc1c(F)cccc1OC(c1ccccc1)C1CCNCC1` (configuration not stated), the IC50 in test [4] and in test [3] was greater than 1000 nM each time. The molecule also returned a Ki in test [6] of 5.3 nM.
Turning to `Fc1cc(F)cc(OC(c2ccccc2)C2CCNCC2)c1` (stereo in doubt; (-)-15aj), the IC50 in test [4], in test [5] and in test [3] was greater than 1000 nM in each case.
For `FC(F)(F)c1ccc(OC(c2ccccc2)C2CCNCC2)cc1` (configuration not stated), the IC50 in test [4] and in test [3] was greater than 1000 nM each time. Besides, the inhibition constant (Ki) in test [6] was determined as 17.1 nM.
On to `Fc1cccc(OC(c2cccc(F)c2)C2CCNCC2)c1` (stereo in doubt; 15u), for which the concentration for half-maximal inhibition (IC50) in test [4] and in test [3] was greater than 1000 nM in each case. The molecule further returned a Ki in test [6] of 16.1 nM.
Take `Fc1ccc(OC(CC2CCNCC2)c2ccccc2)cc1` (configuration not stated): the Ki in test [1] was determined as 140 nM; in test [6], 78.3 nM. This molecule showed an IC50 in test [3] greater than 1000 nM.
Turning to `COc1cc2c(cc1OC)CN(CCC(Oc1ccc(C)cc1)c1ccccc1)CC2` (configuration not stated), the IC50 was greater than 1000 nM in test [4], 325 nM in test [2] and greater than 1000 nM in test [3].
Regarding `Oc1cc2c(cc1O)CN(CCC(Oc1ccccc1F)c1ccccc1)CC2` (configuration not stated), the IC50 in test [4], in test [2] and in test [3] was greater than 1000 nM in each case.
As to `Brc1cccc(OC(c2ccccc2)C2CCNCC2)c1` (configuration not stated), the concentration for half-maximal inhibition (IC50) in test [4] and in test [3] was greater than 1000 nM in each case. Also, affinity in test [6] was put at a Ki of 10 nM.

The record behind these values is ChEMBL document CHEMBL1145929, “Syntheses and binding studies of new [(aryl)(aryloxy)methyl]piperidine derivatives and related compounds as potential antidepressant drugs with high affinity for serotonin (5-HT) and norepinephrine (NE) transporters” (J Med Chem, 2003).
